Experimental data taken from US20040143004A1, “Metronomic dosing of taxanes” (priority 2004, published 2004).

System: endothelial cells in MATRIGEL plugs
Description: LX1 human lung tumor fragments that were maintained by serial subcutaneous passage in athymic (nu/nu) Balb/c mice were implanted subcutaneously as small fragments approximately 0.1 mm^3 in size. Tumor volume doubling time for this tumor in these studies was 2.8 days. When tumors reached the size range of 150-200 mm^3, liquid [sequence] was injected subcutaneously on the side contralateral to the tumor. Treatment was initiated 24 hours later at varying doses and schedules. Prior to implanting, [sequence] is prepared by placing solidified [sequence] on ice overnight at 4 C. in accordance with the method described by Passiniti et al. (Lab. Invest. 1992 67:519-28). At the liquid phase and while on ice, VEGF and bFGF (Peprotech, Inc. Rocky Hill, N.J.) is added to the [sequence] at final respective concentrations of 75 ng/ml and 300 ng/ml. […] These plugs were then processed for paraffin embedding and sectioned at 5 μm thickness followed by staining with hematoxylin and eosin prior to quantitative analysis. The number of endothelial cells in plugs was quantitated using the IMAGEPRO PLUS software (Media Cybernetics, Inc., Silver Spring, Md.) at a magnification of 20×. […]
Angiogenesis is evaluated in these plugs as the number of endothelial cells migrating into plugs from compound treated groups relative to the vehicle treated group.

## COC(=O)O[C@@]12CO[C@@H]1C[C@H](O)[C@@]1(C)C(=O)[C@H](OC(C)=O)C3=C(C)[C@@H](OC(=O)[C@H](O)[C@@H](NC(=O)OC(C)(C)C)C(C)(C)C)C[C@@](O)([C@@H](OC(=O)c4ccccc4)[C@H]21)C3(C)C [Formula I, 3′-tert-butyl-3′-N-tert-butyloxycarbonyl-4-deacetyl-3′-dephenyl-3′-N-debenzoyl-4-O-methoxycarbonyl-paclitaxel]
Fold lower than the maximum tolerated dose
  dose below MTD at which anti-angiogenic effects are still observed in vivo: approximately 13 fold
mice, q2dx5 schedule
  maximum tolerated dose (MTD): 60 mg/kg
